pIC50, pKi: −log10 of the molar value.
Columns and labels:
Assay type in all cases: cell-based
[1] = molecular target: T1, rat mGlu5 (HEK293A-rat mGlu5-low) (Rattus norvegicus, UniProt P31424); experiment: IP1 accumulation
[2] = molecular target: T1, rat mGlu5 (HEK293A-rat mGlu5-low); experiment: [3H]methoxy-PEPy inhibition binding, intact adherent cells
[3] = molecular target: T1, rat mGlu5 (HEK293A-rat mGlu5-low); experiment: radioligand binding, intact adherent cells; conditions: labelled compound, ~2 nM, RT, 1 h, pH 7.4; allosteric site

T1 sequence (P31424 21-1203): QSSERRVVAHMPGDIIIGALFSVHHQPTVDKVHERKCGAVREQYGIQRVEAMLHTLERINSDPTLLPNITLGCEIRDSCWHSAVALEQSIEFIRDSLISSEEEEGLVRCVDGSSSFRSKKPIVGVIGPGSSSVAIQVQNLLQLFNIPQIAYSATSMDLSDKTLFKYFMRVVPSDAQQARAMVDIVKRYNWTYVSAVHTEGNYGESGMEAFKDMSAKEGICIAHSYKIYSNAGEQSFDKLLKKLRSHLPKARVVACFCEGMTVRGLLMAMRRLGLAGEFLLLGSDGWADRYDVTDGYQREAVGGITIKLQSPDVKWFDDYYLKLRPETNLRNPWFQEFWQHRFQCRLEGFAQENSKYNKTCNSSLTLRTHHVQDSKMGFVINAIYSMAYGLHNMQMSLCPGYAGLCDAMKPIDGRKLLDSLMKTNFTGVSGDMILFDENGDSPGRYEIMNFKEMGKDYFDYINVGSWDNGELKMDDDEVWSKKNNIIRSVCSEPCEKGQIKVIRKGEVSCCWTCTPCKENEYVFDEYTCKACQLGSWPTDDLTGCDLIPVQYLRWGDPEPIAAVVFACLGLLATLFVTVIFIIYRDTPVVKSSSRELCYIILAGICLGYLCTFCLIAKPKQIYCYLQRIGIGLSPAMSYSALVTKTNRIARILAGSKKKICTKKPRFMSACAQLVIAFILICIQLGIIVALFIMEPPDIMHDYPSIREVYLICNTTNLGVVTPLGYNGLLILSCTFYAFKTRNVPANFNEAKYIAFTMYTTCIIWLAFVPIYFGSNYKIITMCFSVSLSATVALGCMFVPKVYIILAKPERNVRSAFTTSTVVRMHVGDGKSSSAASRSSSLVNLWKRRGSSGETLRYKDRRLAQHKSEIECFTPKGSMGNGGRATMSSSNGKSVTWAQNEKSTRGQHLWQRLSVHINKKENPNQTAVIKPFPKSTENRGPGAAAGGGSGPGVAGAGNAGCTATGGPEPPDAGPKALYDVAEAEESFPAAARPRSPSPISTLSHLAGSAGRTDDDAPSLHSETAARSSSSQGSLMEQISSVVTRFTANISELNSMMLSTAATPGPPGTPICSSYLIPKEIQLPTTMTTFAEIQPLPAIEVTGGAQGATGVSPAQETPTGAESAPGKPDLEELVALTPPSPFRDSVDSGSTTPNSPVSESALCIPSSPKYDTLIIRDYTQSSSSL

Compound | pIC50 [1] | pKi [2] | radioligand binding, intact adherent cells [3]
COc1cccc(C#Cc2ccc(C)cn2)c1 [M-5MPEP, 2-[2-(3-methoxyphenyl)ethynyl]-5-methylpyridine] | 6.53 | 7.13 | 
COc1cncc(C#Cc2ccccn2)c1 [[^3H]methoxy-PEPy] |  |  | inhibition of [^3H]methoxy-PEPy binding was determined in HEK293A-rat mGlu5-low cells
CN1CC(=O)N=C1NC(=O)Nc1cccc(Cl)c1 [fenobam, 1-(3-chlorophenyl)-3-[(2e)-1-methyl-4-oxoimidazolidin-2-ylidene]urea] | 6.83 | 7.15 | 
Fc1ccc2nc(CCC#Cc3ccccn3)cn2c1 [dipraglurant, 6-fluoro-2-[4-(2-pyridinyl)-3-butyn-1-yl]-Imidazo[1,2-a]pyridine] | 7.36 | 7.31 | 

The next lines start with results.

pIC50 [1] | pKi [2] | Compound | radioligand binding, intact adherent cells [3]
6.48 | 6.94 | N#Cc1cc(F)cc(C(=O)Nc2cccc(Cl)c2F)c1 [VU0366248, N-(3-chloro-2-fluorophenyl)-3-cyano-5-fluorobenzamide] | 
6.98 | 7.26 | N#Cc1cnc(Nc2nc3ccccc3o2)nc1-c1ccc(F)cc1 [VU0366058, 2-(1,3-benzoxazol-2-ylamino)-4-(4-fluorophenyl)pyrimidine-5-carbonitrile] | 

From publication PMC6420870 (Neuropharmacology, 2019)
